Test results as given in the CheMixHub viscosity set.

Experiment: xn = mol fraction of the nth substance listed

CCCN + COCCOC
298.15 K, 101 kPa
Conditions | viscosity [mPa·s]
x1 = 0.0189 | 0.415
x2 = 0.0057 | 0.356
x2 = 0.0115 | 0.357
x2 = 0.032 | 0.358
x2 = 0.0568 | 0.36
x2 = 0.0815 | 0.362
x2 = 0.1075 | 0.364
x2 = 0.1552 | 0.368
x2 = 0.1871 | 0.369
x2 = 0.2467 | 0.372
x2 = 0.2882 | 0.373
x2 = 0.3386 | 0.374
x2 = 0.3526 | 0.374
x2 = 0.3761 | 0.374
x2 = 0.4134 | 0.375
x2 = 0.4707 | 0.378
x2 = 0.5131 | 0.38
x2 = 0.5662 | 0.381
x2 = 0.6099 | 0.383
x2 = 0.6466 | 0.386
x2 = 0.7017 | 0.39
x2 = 0.74 | 0.392
x2 = 0.8022 | 0.397
x2 = 0.833 | 0.399
x2 = 0.8785 | 0.403
x2 = 0.9167 | 0.408
x2 = 0.9436 | 0.411

CCCN + COCCOCCO
298.15 K, 101 kPa
Conditions | viscosity [mPa·s]
x2 = 0.0255 | 0.399
x2 = 0.0563 | 0.444
x2 = 0.0879 | 0.493
x2 = 0.1249 | 0.562
x2 = 0.1605 | 0.634
x2 = 0.2036 | 0.735
x2 = 0.2453 | 0.842
x2 = 0.2996 | 1.01
x2 = 0.3405 | 1.159
x2 = 0.3854 | 1.334
x2 = 0.4144 | 1.455
x2 = 0.4488 | 1.601
x2 = 0.4769 | 1.726
x2 = 0.5252 | 1.953
x2 = 0.5736 | 2.163
x2 = 0.6235 | 2.386
x2 = 0.6581 | 2.523
x2 = 0.7072 | 2.718
x2 = 0.7563 | 2.892
x2 = 0.7974 | 3.02
x2 = 0.8476 | 3.165
x2 = 0.8779 | 3.225
x2 = 0.9088 | 3.297
x2 = 0.9387 | 3.351
x2 = 0.9526 | 3.375

CCCN + COCCOCCOC
298.15 K, 101 kPa
Conditions | viscosity [mPa·s]
x1 = 0.0113 | 0.985
x2 = 0.0044 | 0.359
x2 = 0.0179 | 0.368
x2 = 0.0461 | 0.385
x2 = 0.0659 | 0.4
x2 = 0.0913 | 0.417
x2 = 0.1293 | 0.443
x2 = 0.1685 | 0.472
x2 = 0.1892 | 0.487
x2 = 0.2354 | 0.518
x2 = 0.2682 | 0.541
x2 = 0.2727 | 0.544
x2 = 0.315 | 0.575
x2 = 0.3201 | 0.579
x2 = 0.3647 | 0.613
x2 = 0.3683 | 0.615
x2 = 0.4079 | 0.644
x2 = 0.4628 | 0.679
x2 = 0.5243 | 0.721
x2 = 0.5823 | 0.757
x2 = 0.6408 | 0.796
x2 = 0.7358 | 0.84
x2 = 0.79 | 0.873
x2 = 0.8565 | 0.908
x2 = 0.897 | 0.935
x2 = 0.9375 | 0.955

CCCN + COCCOCCOCCOC
298.15 K, 101 kPa
Conditions | viscosity [mPa·s]
x2 = 0.0076 | 0.366
x2 = 0.0166 | 0.375
x2 = 0.0296 | 0.393
x2 = 0.0659 | 0.44
x2 = 0.0954 | 0.48
x2 = 0.1298 | 0.526
x2 = 0.1596 | 0.567
x2 = 0.1909 | 0.611
x2 = 0.2265 | 0.659
x2 = 0.2351 | 0.673
x2 = 0.2622 | 0.711
x2 = 0.2681 | 0.721
x2 = 0.3073 | 0.782
x2 = 0.3623 | 0.864
x2 = 0.4044 | 0.935
x2 = 0.4583 | 1.022
x2 = 0.5139 | 1.115
x2 = 0.5761 | 1.225
x2 = 0.6483 | 1.365
x2 = 0.6867 | 1.435
x2 = 0.745 | 1.549
x2 = 0.8308 | 1.72
x2 = 0.8787 | 1.805
x2 = 0.9203 | 1.862
x2 = 0.9618 | 1.917

CC(C)C(C)O (centres undefined) + COc1ccccc1
viscosity [mPa·s], 101.33 kPa
Conditions | x2 = 0.1006 | x2 = 0.2007 | x2 = 0.3004 | x2 = 0.4 | x2 = 0.5008 | x2 = 0.6009 | x2 = 0.6997 | x2 = 0.8003 | x2 = 0.8998
303.15 K | 2.405 | 1.858 | 1.476 | 1.223 | 1.067 | 0.981 | 0.937 | 0.919 | 0.913
313.15 K | 1.731 | 1.397 | 1.157 | 0.991 | 0.889 | 0.832 | 0.808 | 0.799 | 0.794
323.15 K | 1.273 | 1.066 | 0.925 | 0.83 | 0.771 | 0.736 | 0.718 | 0.707 | 0.699

Clc1ccccc1Cl + COc1ccccc1
viscosity [mPa·s], 101 kPa
Conditions | x2 = 0.0977 | x2 = 0.1979 | x2 = 0.3012 | x2 = 0.403 | x2 = 0.4955 | x2 = 0.5995 | x2 = 0.6967 | x2 = 0.7951 | x2 = 0.8931
298.15 K | 1.201 | 1.172 | 1.142 | 1.118 | 1.097 | 1.081 | 1.056 | 1.037 | 1.022
303.15 K | 1.121 | 1.094 | 1.067 | 1.042 | 1.019 | 1 | 0.9808 | 0.9631 | 0.9486
308.15 K | 1.046 | 1.02 | 0.9938 | 0.9716 | 0.949 | 0.9288 | 0.9098 | 0.8944 | 0.881
313.15 K | 0.9762 | 0.9514 | 0.9268 | 0.9045 | 0.8869 | 0.8664 | 0.8479 | 0.832 | 0.8178

CCCC1c2cc(c(O)c(/N=N/c3cccc(C(=O)O)c3)c2O)C(CCC)c2cc(c(O)c(/N=N/c3cccc(C(=O)O)c3)c2O)C(CCC)c2cc(c(O)c(/N=N/c3cccc(C(=O)O)c3)c2O)C(CCC)c2cc1c(O)c(/N=N/c1cccc(C(=O)O)c1)c2O (centres undefined) + CS(C)=O
viscosity [mPa·s], 101 kPa
Conditions | 293.15 K | 298.15 K | 303.15 K | 308.15 K | 313.15 K
x1 = 0.000457 | 2.314 | 2.072 | 1.87 | 1.698 | 1.555
x1 = 0.000544 | 2.345 | 2.1 | 1.893 | 1.724 | 1.579
x1 = 0.000616 | 2.369 | 2.124 | 1.907 | 1.737 | 1.597
x1 = 0.000708 | 2.391 | 2.143 | 1.931 | 1.756 | 1.607
x1 = 0.0008532 | 2.425 | 2.167 | 1.952 | 1.779 | 1.625
x1 = 0.001009 | 2.471 | 2.209 | 1.991 | 1.812 | 1.651
x1 = 0.001122 | 2.52 | 2.25 | 2.024 | 1.838 | 1.68
x1 = 0.001351 | 2.556 | 2.284 | 2.045 | 1.858 | 1.695
x1 = 0.001491 | 2.633 | 2.346 | 2.104 | 1.905 | 1.739
x1 = 0.001636 | 2.678 | 2.38 | 2.138 | 1.934 | 1.764
x1 = 0.001789 | 2.724 | 2.43 | 2.176 | 1.967 | 1.79

CCCCOC(C)=O + CS(C)=O
viscosity [mPa·s], 101.33 kPa
Conditions | x2 = 0.074 | x2 = 0.1418 | x2 = 0.2774 | x2 = 0.46 | x2 = 0.5396 | x2 = 0.6383 | x2 = 0.7272 | x2 = 0.809 | x2 = 0.9021 | x2 = 0.9703
293.15 K | 0.774 | 0.789 | 0.868 | 1.011 | 1.098 | 1.211 | 1.363 | 1.527 | 1.791 | 2.063
303.15 K | 0.678 | 0.692 | 0.752 | 0.879 | 0.931 | 1.032 | 1.146 | 1.28 | 1.488 | 1.697
313.15 K | 0.592 | 0.606 | 0.662 | 0.766 | 0.809 | 0.889 | 0.983 | 1.117 | 1.258 | 1.423

C=COC(C)=O + Cc1ccc(C)cc1
viscosity [mPa·s], 101 kPa
Conditions | x1 = 0.1501 | x1 = 0.2469 | x1 = 0.3618 | x1 = 0.4592 | x1 = 0.5631 | x1 = 0.67 | x1 = 0.7587 | x1 = 0.8601 | x1 = 0.9478
303.15 K | 0.537 | 0.518 | 0.497 | 0.48 | 0.462 | 0.445 | 0.435 | 0.42 | 0.403
313.15 K | 0.486 | 0.467 | 0.445 | 0.428 | 0.41 | 0.393 | – | – | 0.353

CCCCOC(C)=O + Cc1ccc(C)cc1
viscosity [mPa·s], 101 kPa
Conditions | 298.15 K | 308.15 K
x1 = 0.0459 | 0.615 | 0.537
x1 = 0.1511 | 0.615 | 0.54
x1 = 0.2505 | 0.618 | 0.543
x1 = 0.3511 | 0.621 | 0.547
x1 = 0.4477 | 0.626 | 0.552
x1 = 0.4948 | 0.628 | 0.555
x1 = 0.55 | 0.632 | 0.558
x1 = 0.6515 | 0.639 | 0.565
x1 = 0.7509 | 0.647 | 0.572
x1 = 0.8517 | 0.657 | 0.58
x1 = 0.9445 | 0.667 | 0.589

C=COC(C)=O + Cc1cccc(C)c1
viscosity [mPa·s], 101 kPa
Conditions | x1 = 0.1482 | x1 = 0.2434 | x1 = 0.3456 | x1 = 0.4518 | x1 = 0.5741 | x1 = 0.6832 | x1 = 0.7598 | x1 = 0.8817 | x1 = 0.9602
303.15 K | 0.52 | 0.502 | 0.483 | 0.465 | 0.445 | 0.428 | 0.414 | 0.401 | 0.392
313.15 K | 0.469 | 0.452 | 0.434 | 0.416 | 0.399 | 0.383 | 0.37 | 0.358 | 0.35

CCCCOC(C)=O + Cc1cccc(C)c1
viscosity [mPa·s], 101 kPa
Conditions | 298.15 K | 308.15 K
x1 = 0.0468 | 0.583 | 0.528
x1 = 0.1506 | 0.587 | 0.531
x1 = 0.2497 | 0.592 | 0.535
x1 = 0.3502 | 0.598 | 0.539
x1 = 0.4477 | 0.606 | 0.545
x1 = 0.4941 | 0.61 | 0.548
x1 = 0.549 | 0.615 | 0.551
x1 = 0.6505 | 0.625 | 0.559
x1 = 0.7501 | 0.637 | 0.568
x1 = 0.8511 | 0.651 | 0.577
x1 = 0.9409 | 0.664 | 0.587
